Laboratory results taken from ChEMBL document CHEMBL3425462, “N-Arylmethylaminoquercitols, a new series of effective antidiabetic agents having α-glucosidase inhibition and antioxidant activity” (Bioorg Med Chem Lett, 2015).

How the values were obtained:
Saccharomyces cerevisiae = assay: Inhibition of baker's yeast alpha-glucosidase at 10 mg/ml relative to control
[1] = Antioxidant activity of the compound assessed as DPPH radical scavenging activity at 5 mg/ml incubated in dark condition for 15 mins by colorimetric method relative to control; format: physicochemical; conditions: 0.25 h
[2] = Inhibition of baker's yeast alpha-glucosidase; design: species or system Saccharomyces cerevisiae
[3] = Antioxidant activity of the compound assessed as DPPH radical scavenging activity incubated in dark condition for 15 mins by colorimetric method; format: physicochemical; conditions: 0.25 h

| SMILES | inhibition (Saccharomyces cerevisiae) [%] | Activity [1] [%] | IC50 [2] [µM] | SC50 [3] [mM] |
| --- | --- | --- | --- | --- |
| O[C@@H]1[C@@H](O)[C@H](O)C[C@H](NCc2cccs2)[C@@H]1O | < 30 | < 20 |  |  |
| C[C@H]1O[C@H](O[C@H]2[C@H](O)[C@@H](O)[C@@H](O[C@H]3[C@H](O)[C@@H](O)C(O)O[C@@H]3CO)O[C@@H]2CO)[C@H](O)[C@@H](O)[C@@H]1N[C@H]1C=C(CO)[C@@H](O)[C@H](O)[C@H]1O (stereo partly drawn) [ACARBOSE] |  | < 20 | 480 |  |
| COc1cc(C=O)ccc1O [VANILLIN] |  |  |  | 4.9 |
| COc1cc(CN[C@H]2C[C@@H](O)[C@H](O)[C@@H](O)[C@H]2O)ccc1O |  |  | 94.4 | 2.1 |
| Oc1ccc(CN[C@H]2C[C@@H](O)[C@H](O)[C@@H](O)[C@H]2O)cc1 |  |  | 111 | 16.2 |
| N[C@H]1C[C@@H](O)[C@H](O)[C@@H](O)[C@H]1O |  | < 20 | 2890 |  |
| CC(C)(C)c1cc(CN[C@H]2C[C@@H](O)[C@H](O)[C@@H](O)[C@H]2O)cc(C(C)(C)C)c1O |  |  | 89.1 | 0.4 |
| O[C@@H]1[C@@H](O)[C@H](O)C[C@H](NCc2ccc(Br)cc2)[C@@H]1O |  | < 20 | 3140 |  |
| O[C@@H]1[C@@H](O)[C@H](O)C[C@H](NCc2cccnc2)[C@@H]1O | < 30 | < 20 |  |  |
| OC(CN[C@H]1C[C@@H](O)[C@H](O)[C@@H](O)[C@H]1O)c1ccccc1 (stereo partly drawn) |  | < 20 | 3010 |  |
| CC(C)(C)c1cc(C=O)cc(C(C)(C)C)c1O |  |  |  | 1.4 |
| O=Cc1ccc(O)cc1 [4-HYDROXYBENZALDEHYDE] |  | < 20 |  |  |
| O[C@@H]1[C@@H](O)[C@H](O)C[C@H](NCCc2ccccc2)[C@@H]1O |  | < 20 | 1350 |  |
